From publication PMC8286599 (Gut Pathogens, 2021)
≈ marks a conversion by molar mass, not a printed value. Where two headings read alike, the source gives them in different places.

How the values were obtained:
[1] = test system: Salmonella Enteritidis strains; format: cell-based; further: key: S- Sensitive; I- Intermediate; R- Resistant
[2] = test system: EAEC strains; assay: Antibiotic susceptibility testing; format: cell-based, enteroaggregative Escherichia coli; further: key: S- Sensitive; I- Intermediate; R- Resistant
Description: Supplement 13099_2021_443_MOESM1_ESM.docx, table 1: Supplementary Table 1. Antibiotic susceptibility pattern of EAEC and NTS strains under study | column: Antibiotic Susceptibility testing

[3] = test system: EAEC strains; assay: MIC values of antibiotics; format: cell-based, enteroaggregative Escherichia coli
[4] = test system: Salmonella Typhimurium strains; format: cell-based; further: key: S- Sensitive; I- Intermediate; R- Resistant

With `O=C1CN(/N=C/c2ccc([N+](=O)[O-])o2)C(=O)N1` [NIT, Nitrofurantoin] the “Antibiotic Susceptibility testing” value [1] was “S and R”.

`O=C(N[C@H](CO)[C@H](O)c1ccc([N+](=O)[O-])cc1)C(Cl)Cl` [C, Chloramphenicol] was tested, and the “Antibiotic Susceptibility testing” value ([2]; strain E1) was “S”, the “Antibiotic Susceptibility testing” value ([2]; strain E2) was “S” and the “Antibiotic Susceptibility testing” value ([2]; strain E3) was “S”. For the same compound, the “MIC Values, class symbol printed instead of a number” value (from here on “MIC Values”) ([3]; strain E1) was “S”, the “MIC Values” value ([3]; strain E2) was “S” and the “MIC Values” value ([3]; strain E3) was “S”. The “Antibiotic Susceptibility testing” value ([1]; strain S1) was “R”, the “Antibiotic Susceptibility testing” value ([1]; strain S2) was “S” and the “Antibiotic Susceptibility testing” value ([1]; strain S3) was “S”. For the same compound, the “Antibiotic Susceptibility testing” value ([4]; strain ST1) was “R”, the “Antibiotic Susceptibility testing” value ([4]; strain ST2) was “R” and the “Antibiotic Susceptibility testing” value ([4]; strain ST3) was “R”.

For Colistin sulphate, the “Antibiotic Susceptibility testing” value ([2]; strain E1) was “S”, the “Antibiotic Susceptibility testing” value ([2]; strain E2) was “S” and the “Antibiotic Susceptibility testing” value ([2]; strain E3) was “S”. The “MIC Values” value ([3]; strain E1) was “S”, the “MIC Values” value ([3]; strain E2) was “S” and the “MIC Values” value ([3]; strain E3) was “S”.

With `CC(C)(O/N=C(\C(=O)N[C@@H]1C(=O)N2C(C(=O)[O-])=C(C[n+]3ccccc3)CS[C@H]12)c1csc(N)n1)C(=O)O` [CAZ] the “Antibiotic Susceptibility testing” value ([4]; strain ST1) was “S”, the “Antibiotic Susceptibility testing” value ([4]; strain ST2) was “R” and the “Antibiotic Susceptibility testing” value ([4]; strain ST3) was “I”.

`C[C@@H](O)[C@H]1C(=O)N2C(C(=O)O)=C(SCCN=CN)C[C@H]12` [IPM] was tested, and the “Antibiotic Susceptibility testing” value ([4]; strain ST1) was “S”, the “Antibiotic Susceptibility testing” value ([4]; strain ST2) was “S” and the “Antibiotic Susceptibility testing” value ([4]; strain ST3) was “S”.

For `CN(C)[C@@H]1C(O)=C(C(N)=O)C(=O)[C@@]2(O)C(O)=C3C(=O)c4c(O)cccc4[C@@](C)(O)[C@H]3C[C@@H]12` [TE], the “Antibiotic Susceptibility testing” value ([2]; strain E1) was “R”, the “Antibiotic Susceptibility testing” value ([2]; strain E2) was “R” and the “Antibiotic Susceptibility testing” value ([2]; strain E3) was “R”. It also gave an MIC ([3]; strain E1) of 60 µM (≈ 26.7 µg/mL), an MIC ([3]; strain E2) of 2 µM (≈ 0.889 µg/mL) and an MIC ([3]; strain E3) of 30 µM (≈ 13.3 µg/mL). The “Antibiotic Susceptibility testing” value ([1]; strain S1) was “R”, the “Antibiotic Susceptibility testing” value ([1]; strain S2) was “S” and the “Antibiotic Susceptibility testing” value ([1]; strain S3) was “S”. The “Antibiotic Susceptibility testing” value ([4]; strain ST1) was “R”, the “Antibiotic Susceptibility testing” value ([4]; strain ST2) was “R” and the “Antibiotic Susceptibility testing” value ([4]; strain ST3) was “R”.

`C[C@H]1[C@H](NC(=O)/C(=N\OC(C)(C)C(=O)O)c2csc(N)n2)C(=O)N1S(=O)(=O)O` [AT, Aztreonam] was tested, and the “Antibiotic Susceptibility testing” value ([1]; strain S1) was “S”, the “Antibiotic Susceptibility testing” value ([1]; strain S2) was “S” and the “Antibiotic Susceptibility testing” value ([1]; strain S3) was “S”.

In the case of `CO/N=C(\C(=O)N[C@@H]1C(=O)N2C(C(=O)[O-])=C(C[N+]3(C)CCCC3)CS[C@H]12)c1csc(N)n1` [CPM], the “Antibiotic Susceptibility testing” value ([1]; strain S1) is reported as “S”, the “Antibiotic Susceptibility testing” value ([1]; strain S2) is reported as “S” and the “Antibiotic Susceptibility testing” value ([1]; strain S3) is reported as “S”. For the same compound, the “Antibiotic Susceptibility testing” value ([4]; strain ST1) was “S”, the “Antibiotic Susceptibility testing” value ([4]; strain ST2) was “S” and the “Antibiotic Susceptibility testing” value ([4]; strain ST3) was “S”.

In the case of `CO/N=C(\C(=O)N[C@@H]1C(=O)N2C(C(=O)O)=C(COC(C)=O)CS[C@H]12)c1csc(N)n1` [CTX], the “Antibiotic Susceptibility testing” value ([1]; strain S1) is reported as “S”, the “Antibiotic Susceptibility testing” value ([1]; strain S2) is reported as “S” and the “Antibiotic Susceptibility testing” value ([1]; strain S3) is reported as “S”.

For `CCN1CCN(C(=O)N[C@@H](C(=O)N[C@@H]2C(=O)N3C(C(=O)O)=C(CSc4nnnn4C)CS[C@H]23)c2ccc(O)cc2)C(=O)C1=O` [CPZ, Cefoperozone], the “Antibiotic Susceptibility testing” value ([1]; strain S1) was “S”, the “Antibiotic Susceptibility testing” value ([1]; strain S2) was “S” and the “Antibiotic Susceptibility testing” value ([1]; strain S3) was “S”.

`C[C@H]1COc2c(N3CCN(C)CC3)c(F)cc3c(=O)c(C(=O)O)cn1c23` [LE, Levofloxacin] was tested, and the “Antibiotic Susceptibility testing” value ([4]; strain ST1) was “R”, the “Antibiotic Susceptibility testing” value ([4]; strain ST2) was “R” and the “Antibiotic Susceptibility testing” value ([4]; strain ST3) was “I”.

For `CCn1cc(C(=O)O)c(=O)c2ccc(C)nc21` [NA, Nalidicic Acid], the “Antibiotic Susceptibility testing” value ([1]; strain S1) was “R”, the “Antibiotic Susceptibility testing” value ([1]; strain S2) was “R” and the “Antibiotic Susceptibility testing” value ([1]; strain S3) was “R”. The “Antibiotic Susceptibility testing” value ([4]; strain ST1) was “R”, the “Antibiotic Susceptibility testing” value ([4]; strain ST2) was “R” and the “Antibiotic Susceptibility testing” value ([4]; strain ST3) was “I”.

With `CO[C@@]1(NC(=O)Cc2cccs2)C(=O)N2C(C(=O)O)=C(COC(N)=O)CS[C@@H]21` [CX] the “Antibiotic Susceptibility testing” value [1] was “S” and the “Antibiotic Susceptibility testing” value [4] was “S and R and I”.

For `CC1(C)S[C@@H]2[C@H](NC(=O)[C@H](N)c3ccccc3)C(=O)N2[C@H]1C(=O)O` [AMP], the “Antibiotic Susceptibility testing” value ([2]; strain E1) was “R”, the “Antibiotic Susceptibility testing” value ([2]; strain E2) was “R” and the “Antibiotic Susceptibility testing” value ([2]; strain E3) was “R”. The MIC ([3]; strain E1) was greater than 240 µM, the MIC ([3]; strain E2) was greater than 240 µM and the MIC ([3]; strain E3) was greater than 240 µM. For the same compound, the “Antibiotic Susceptibility testing” value ([1]; strain S1) was “R”, the “Antibiotic Susceptibility testing” value ([1]; strain S2) was “R” and the “Antibiotic Susceptibility testing” value ([1]; strain S3) was “R”. For the same compound, the “Antibiotic Susceptibility testing” value ([4]; strain ST1) was “R”, the “Antibiotic Susceptibility testing” value ([4]; strain ST2) was “R” and the “Antibiotic Susceptibility testing” value ([4]; strain ST3) was “R”.

For `O=C(O)c1cn(C2CC2)c2cc(N3CCNCC3)c(F)cc2c1=O` [CIP], the “Antibiotic Susceptibility testing” value ([2]; strain E1) was “S”, the “Antibiotic Susceptibility testing” value ([2]; strain E2) was “R” and the “Antibiotic Susceptibility testing” value ([2]; strain E3) was “R”. For the same compound, the MIC ([3]; strain E2) was 120 µM (≈ 39.8 µg/mL), the MIC ([3]; strain E3) was 60 µM (≈ 19.9 µg/mL) and the “Antibiotic Susceptibility testing” value ([4]; strain ST1) was “R”. The “Antibiotic Susceptibility testing” value ([4]; strain ST2) was “R” and the “Antibiotic Susceptibility testing” value ([4]; strain ST3) was “R”.

`C[C@@H](O)[C@H]1C(=O)N2C(C(=O)O)=C(S[C@@H]3CN[C@H](C(=O)N(C)C)C3)[C@H](C)[C@H]12` [MRP, Meropenem] was tested, and the “Antibiotic Susceptibility testing” value ([1]; strain S1) was “S”, the “Antibiotic Susceptibility testing” value ([1]; strain S2) was “S” and the “Antibiotic Susceptibility testing” value ([1]; strain S3) was “S”.

In the case of `C[C@@H](O)[C@H]1C(=O)N2C(C(=O)O)=C(SCCN=CN)C[C@H]12` [IMI, Imipenem], the “Antibiotic Susceptibility testing” value ([2]; strain E1) is reported as “S”, the “Antibiotic Susceptibility testing” value ([2]; strain E2) is reported as “S” and the “Antibiotic Susceptibility testing” value ([2]; strain E3) is reported as “S”. For the same compound, the “MIC Values” value ([3]; strain E1) was “S”, the “MIC Values” value ([3]; strain E2) was “S” and the “MIC Values” value ([3]; strain E3) was “S”.

For `Nc1ccc(S(=O)(=O)Nc2ncccn2)cc1` [SD, Sulfadiazine], the “Antibiotic Susceptibility testing” value [1] was “R”.

With `Cc1noc(NS(=O)(=O)c2ccc(N)cc2)c1C` [SF, Sulphafurazole] the “Antibiotic Susceptibility testing” value ([1]; strain S1) was “S”, the “Antibiotic Susceptibility testing” value ([1]; strain S2) was “R” and the “Antibiotic Susceptibility testing” value ([1]; strain S3) was “S”.

For `COCC1=C(C(=O)O)N2C(=O)[C@@H](NC(=O)/C(=N\OC)c3csc(N)n3)[C@H]2SC1` [CPD, Cefpodoxime], the “Antibiotic Susceptibility testing” value ([1]; strain S1) was “R”, the “Antibiotic Susceptibility testing” value ([1]; strain S2) was “R” and the “Antibiotic Susceptibility testing” value ([1]; strain S3) was “R”.

`CO/N=C(\C(=O)N[C@@H]1C(=O)N2C(C(=O)O)=C(COC(C)=O)CS[C@H]12)c1csc(N)n1` [CTR, Cefotaxime] was tested, and the “Antibiotic Susceptibility testing” value ([2]; strain E1) was “S”, the “Antibiotic Susceptibility testing” value ([2]; strain E2) was “R” and the “Antibiotic Susceptibility testing” value ([2]; strain E3) was “R”. For the same compound, the MIC ([3]; Escherichia coli, strain E2) was greater than 240 µM, the “MIC Values” value ([3]; strain E1) was “S” and the MIC ([3]; strain E3) was greater than 240 µM. The “Antibiotic Susceptibility testing” value ([4]; strain ST1) was “S”, the “Antibiotic Susceptibility testing” value ([4]; strain ST2) was “R” and the “Antibiotic Susceptibility testing” value ([4]; strain ST3) was “S”.

In the case of `CC[C@H]1OC(=O)[C@H](C)[C@@H](O[C@H]2C[C@@](C)(OC)[C@@H](O)[C@H](C)O2)[C@H](C)[C@@H](O[C@@H]2O[C@H](C)C[C@H](N(C)C)[C@H]2O)[C@](C)(O)C[C@@H](C)CN(C)[C@H](C)[C@@H](O)[C@]1(C)O` [AZM, Azithromycin], the “Antibiotic Susceptibility testing” value [1] is reported as “S”.

In the case of `NC[C@H]1O[C@H](O[C@H]2[C@H](O)[C@@H](O[C@H]3O[C@H](CO)[C@@H](O)[C@H](N)[C@H]3O)[C@H](N)C[C@@H]2N)[C@H](O)[C@@H](O)[C@@H]1O` [K, Kanamycin], the “Antibiotic Susceptibility testing” value ([1]; strain S1) is reported as “R”, the “Antibiotic Susceptibility testing” value ([1]; strain S2) is reported as “S” and the “Antibiotic Susceptibility testing” value ([1]; strain S3) is reported as “S”.

For `Cc1cc(NS(=O)(=O)c2ccc(N)cc2)no1` [SXT, Sulfamethoxazole], the “Antibiotic Susceptibility testing” value ([2]; strain E1) was “R”, the “Antibiotic Susceptibility testing” value ([2]; strain E2) was “S” and the “Antibiotic Susceptibility testing” value ([2]; strain E3) was “R”.

With `Cc1nnc(SCC2=C(C(=O)O)N3C(=O)[C@@H](NC(=O)Cn4cnnn4)[C@H]3SC2)s1` [CZ] the “Antibiotic Susceptibility testing” value ([4]; strain ST1) was “S”, the “Antibiotic Susceptibility testing” value ([4]; strain ST2) was “S” and the “Antibiotic Susceptibility testing” value ([4]; strain ST3) was “S”.
